Measured values taken from patent US5827821A, “Conformationally stabilized cell adhesion peptides” (The Burnham Institute, priority 1992, dated 1998).
Where no end group is shown, it is not given here. [ ]: non-standard residue; d: D form. Pen = CC(C)(S)[C@H](N)C(=O)O

What was measured:
[1] = tested on: attachment of normal rat kidney cells to vitronectin; test: Cell adhesion assay: inhibition of attachment of normal rat kidney cells to vitronectin; assay type: cell-based; settings: vitronectin-coated wells, peptide 0 to 10.0 mM, FIG. 2
Protocol: (§1) Fibronectin and vitronectin were purified from human plasma according to the methods of Ruoslahti et al., (1982) Meth. Enz. 82:803; and Hayman et al., (1983) PNAS 80:4003, respectively, both of which are incorporated herein by reference. The adhesion of normal rat kidney cells to fibronectin and vitronectin was assayed as described in Ruoslahti et al., Meth. Enz. supra. Briefly, 0.1 ml solution of fibronectin or vitronectin at a concentration of 12 μg/ml in 0.1M PBS was placed in each well of 96-well plastic microtiter plates and left for 2 hours at room temperature. The unattached protein was removed by washing three times with PBS.
(§2) One day before the assay, a confluent culture of normal rat kidney cells was split 1:2 using standard tissue culture trypsin. The cells were washed three times with PBS, pH 7.2. […] Before the last centrifugation, a sample was taken and cell numbers and viability by trypan blue exclusion are determined. […]
(§3) The unattached cells were removed simply by removing the medium and washing the wells. […] The cells were then fixed with 3% paraformaldehyde in PBS and stained with 1% toluidine blue, paraformaldehyde in PBS, and attached cells counted. Their number was determined using a cell counter that is capable of counting cells attached to a surface (Dynatech Laboratories, Alexandria, Va.). […]

[2] = tested on: attachment of normal rat kidney cells to fibronectin; test: Cell adhesion assay: inhibition of attachment of normal rat kidney cells to fibronectin; assay type: cell-based; settings: fibronectin-coated wells, peptide 0 to 10.0 mM, FIG. 2
Protocol: as §1, §2, §3

G[Pen]GRGDSPC (cysteine pairing not given here) [linear peptide]
inhibition of attachment to vitronectin [1]: inhibited attachment of cells to both substrates at relatively similar concentrations
inhibition of attachment to fibronectin [2]: inhibited attachment of cells to both substrates at relatively similar concentrations
